We go through 2 compounds from patent publication US4596875A, “Preparation of amides of 4-hydroxy-3-quinoline-carboxylic acid” (Roussel Uclaf, priority 1982, dated 1986).

The nature of test [1]: Analgesic activity: acetic acid-provoked stretching test based on Koster et al. Type of test: in vivo. As to conditions: Mus musculus; mice, oral, 30 minutes before intraperitoneal acetic acid (1% solution, 0.01 ml/g); fasted 24 hours; 15 minute observation; read-out: DA50 (dose which diminished the number of stretchings by 50% as compared to the controls). As to the method:
The test was based on that of Koster et al [Fed. Proc., Vol. 1B (1959), p. 412] in which mice received an intraperitoneal injection of acetic acid to provoke repeated stretching and twisting movements which persist for more than 6 hours. An analgesic prevents or reduces this syndrome which is considered to be an exteriorization of a diffuse abdominal pain. A 1% solution of acetic acid in water was used and the dose […] the syndrome under these conditions was 0.01 ml/g or 100 mg/kg of acetic acid.
The test compound was orally administered to the mice 30 minutes before the acetic acid injection and the mice had been fasting for the previous 24 hours. The stretchings were counted for each mouse for a 15 minute observation period after the acetic acid injection and the dose which diminished the number of stretchings by 50% as compared to the controls (DA50) was 1.2 and 0.3 mg/kg for the compounds of Example 2 and 10 respectively.

Test [2] can be described thus: Anti-inflammatory activity: edema test provoked by carraghenin. Type of test: in vivo. As to conditions: Rattus norvegicus; male rats 130 to 150 g, oral, simultaneous with 0.05 ml of 1% carraghenin in rear paw; paw volume at 2,4,6,8 and 24 hours; read-out: DA50 (dose which reduced the edema by 50%). How it is done: The anti-inflammatory activity was determined by the edema test provoked by carraghenin in male rats weighing about 130 to 150 g which received 0.05 ml of sterile suspension of 1% carraghenin into the tibiotarsien articulation of the rear paw. Simultaneously the test product in a suspension of 0.25% carboxymethyl cellulose and 0.02% of Tween was orally administered. The volume of the paw was measured before the test and then 2,4,6,8 and 24 hours later. The intensity of inflammation was maximum at 4 to 6 hours after the injection of carraghenin and the differences in paw volume of controls and treated animals were evidence of anti-inflammatory action. The DA50 dose which is that which reduced the edema by 50% was 15 and 12 mg/kg for the products of Examples 2 and 10 respectively.

As to `CCC(O)c1nc2c(C(F)(F)F)cccc2c(O)c1C(=O)Nc1nccs1` (stereo not shown) [Example 10, 4-hydroxy-2-(1-hydroxy-propyl)-N-(2-thiazolyl)-8-trifluoromethyl-3-quinoline-carboxamide], the ED50 in test [1] amounted to 0.3 mg/kg; in test [2], 12 mg/kg.

On to `CC(O)c1nc2c(C(F)(F)F)cccc2c(O)c1C(=O)Nc1nccs1` (stereo not shown) [Example 2, 4-hydroxy-2-(1-hydroxyethyl)-N-(2-thiazolyl)-8-trifluoromethyl-3-quinoline-carboxamide], for which the ED50 in test [1] came out at 1.2 mg/kg; in test [2], 15 mg/kg.
